The values that follow are results of earlier work, collected in US7022677B1, “Amide derivatives as growth hormone secretagogues” (Kaken Pharmaceutical Co., Ltd., priority 1999, dated 2006).

The test system of data set [1] is growth hormone release. The following applies: control compound for pharmacophore development.
The conditions of data set [2]: human, in vivo.

On to `CC(C)(N)CC(=O)N[C@H]1CCc2ccccc2N(Cc2ccc(-c3ccccc3-c3nn[nH]n3)cc2)C1=O` [L-692,428], for which, in data set [1], the “growth hormone releasing activity (active/inactive)” value was “inactive”. As for GHRP-6, in data set [2], the oral bioavailability was 0.3%.
